# Reference: US4518613A, “Thioalkanoyl-carnitines, process for their preparation and mucolytic pharmaceutical compositions containing same” (priority 1981, dated 1985)
# Assays:
# [1] = tested on: bronchial secretion; experiment: Expectorant activity: bronchial secretion in anesthetized rabbits (method of Perry et al.); assay type: in vivo; details: oral, rabbit, 20 to 40 mg
# Experimental: The tests were carried out on male rabbits, weighing 2-3 Kg, anesthetized with ethyl urethane, by following the method disclosed by Perry et al. (J. Pharm. Exp. Ther. 73, 65, 1941).
# Each cannula was connected to a feeding device which delivered a steady flow-rate of pre-heated air (36°-38° C.) at constant humidity (80%). At the lower end of each cannula, a graduated cylinder was fitted, wherein the bronchial secretion was collected. All of the animals breathed spontaneously and consequently they self-regulated the air intake suitable for normal respiration. After an hour following cannula insertion, the animals were administered oraly (by stomach tube) the compounds of general formula (I) dissolved in distilled water at doses comprised between 20 and 40 mg. […] The control animals (8) were given water only. The amount of secretion was determined after 1, 2 and 4 hours from administration.
# [2] = Acute toxicity, LD50 by the Weil method, e.p. administration in mouse; details: in vivo, ip, Weil method N = 4, K = 4
# Description: LD50 of the compounds of general formula (I) assessed with the Weil method ("Tables for convenient calculation of median effective dose (LD50 or ED50) and instructions in their use", Biometrics, 249-253, 1952), by e.p. administration in mouse is shown in Table 1.
# LD50 and fiducial limits, mg/Kg e.p., of the compounds of for-
# mula (I). Weil method N = 4, K = 4.
# [3] = Mucolytic activity in vitro: modification of human sputum density by thromboelastograph (method of Morandini et al.)
# Experimental: The tests were carried out in vitro by using the method disclosed by Morandini et al. (Lotta contro la tubercolosi 47, n. 4, 1977). A thromboelastograph was used to follow the variations induced by the compounds of general formula (I) and acetylcysteine on the rheological properties of human sputum.
SMILES,Percentage variations ± s.e. of bronchial secretion versus basal values ([1]; 1 hour after administration),Percentage variations ± s.e. of bronchial secretion versus basal values ([1]; 2 hours after administration),Percentage variations ± s.e. of bronchial secretion versus basal values ([1]; 4 hours after administration),LD50 [2],Percentage drop of the tracing versus maximum peak (mucolytic activity index) ([3]; after addition of 1 ml of a 10% solution at dilution 1/30),Percentage drop of the tracing versus maximum peak (mucolytic activity index) ([3]; after addition of 1 ml of a 10% solution at dilution 1/60)
"CC(=O)SC(C)CC(=O)OC(CC(=O)O)C[N+](C)(C)C (centres unmarked) [ST-406, 3-thioacetyl butyryl carnitine]",+1.4 ± 0.05 Percentage,+1.9 ± 0.05 Percentage,+3.4 ± 0.04 Percentage,97 mg/kg,–,–
"CC(=O)N[C@@H](CS)C(=O)O [Acetylcysteine, acetylcysteine]",–,–,–,–,84 Percentage,55 Percentage
"CC(=O)SCCCCC(=O)OC(CC(=O)O)C[N+](C)(C)C (centres unmarked) [ST-412, 5-thioacetyl pentanoyl-carnitine]",+1.3 ± 0.04 Percentage,+2.1 ± 0.05 Percentage,+3.1 ± 0.03 Percentage,1540 mg/kg,–,–
"CC(=O)SCCC(=O)OC(CC(=O)O)C[N+](C)(C)C (centres unmarked) [ST-405, 3-thioacetyl propionyl-carnitine]",+1.1 ± 0.03 Percentage,+1.9 ± 0.04 Percentage,+3.6 ± 0.05 Percentage,378 mg/kg,–,–
